Measurements published in publication PMC5608556, “Photo-affinity labelling and biochemical analyses identify the target of trypanocidal simplified natural product analogues” (PLoS Neglected Tropical Diseases, 2017).

Experiments:
T. brucei BSF = assay: Toxicity (EC50) in bloodstream form T. brucei; format: cell-based, Trypanosoma brucei
Excerpt: (§1) Fig 1 Labelling and detection of B-THP-T target(s). (A) Structures of chamuvarinin and simplified analogues thereof as probes used in this study and their respective toxicity in selected cell lines. Bi-functional compound 3 contains a diazirine (blue) to cross-link the compound to its target and an alkyne handle (red) to which an azide-containing reporter probe can be added. Mono-functional compound 2 contains the diazirine to cross-link to its target but lacks the alkyne handle and cannot be appended with an azide reporter probe. Lead B-THP-T, compound 1, lacks both diazirine and alkyne. The additional functional groups on compounds 2 and 3 are minor alterations, which have little effect on inhibitor potency. (B) Overview of the in vivo pulse-chase photo-affinity labelling procedure. B-THP-T were incubated with live PF T. brucei cells and trafficked to their targets. Following UV-irradiation, only compounds containing a diazirine (i.e. compounds 2 and 3) could cross-link with target proteins. The subsequent “click reaction” appended the conjugated B-THP-T with a reporter probe as long as an alkyne handle was present (i.e. on compound 3). Refer to the experimental section for details. (C) Detection of Cy5.5-tagged proteins following photo-affinity labelling. Proteins were separated by SDS-PAGE and conjugated Cy5.5 was detected at 700 nm. Lanes 1–3 correspond to usage of compounds 1–3 respectively. Several proteins in lane 3 were conjugated with Cy5.5 via labelling with bi-functional compound 3. […]

T. brucei PF = assay: Toxicity (EC50, cell viability) in procyclic form T. brucei; format: cell-based; settings: Trypanosoma brucei, live cells, 72 h incubation, footnote a
Excerpt: as §1
The potency of lead B-THP-T, compound 1, was determined against oxidative phosphorylation in dose-response assays in digitonin-permeabilised PF T. brucei.
Supplementary file pntd.0005886.s001.tiff: S1 Fig Dose-response of B-THP-T compounds in PF T. brucei. EC50 values were determined for compounds 1–3 in PF T. brucei. […]

[1] = system: cellular ATP production in PF T. brucei; assay: ATP monitoring in live PF cells (proline as sole carbon source, bioluminescence); format: cell-based, Trypanosoma brucei; settings: 2 h, normalised to no inhibitor control
Method: We first set out to determine if B-THP-T compounds affected cellular ATP levels. PF T. brucei were incubated in buffered PBS with/without proline as the sole carbon source and various inhibitors for 2 h. Cells were harvested and their ATP content was determined by bioluminescence assay. Two ETC inhibitors were used as positive control: malonate is a competitive inhibitor of mitochondrial complex II and prevents the […] of succinate to fumarate and entry of electrons to the ETC; and antimycin A (AA) is a mitochondrial complex III inhibitor, which prevents the transfer of electrons to cytochrome c and ubiquinone recycling. […] Compound 1 inhibited ATP production in a dose-response manner to similar levels (by 55 ± 6%), supporting the hypothesis from pull-down data that its target is involved in the ATP production pathway from proline.
Fig 4 B-THP-Ts decrease cellular ATP levels. PF T. brucei cells were incubated in buffered PBS with/without proline (as sole carbon source) and various inhibitors (concentrations indicated) incubated for 2 h, after which cells were harvested and cellular ATP levels were monitored by bioluminescence assay. Key: NS, no substrate; NI, no inhibitor control; Malonate (complex II inhibitor) AA, antimycin A (AA, complex III inhibitor). Background relative light units (RLU) were subtracted from measurements and % ATP production normalised to the no inhibitor control. Data were averaged from two independent experiments, each performed in duplicate (n = 4). Error bars show standard deviations. […]
Effects of compounds on proline metabolism were determined using a methodology adapted from Podolec et al. Briefly, glucose-free-conditioned PF T. brucei cells were washed into buffered PBS and incubated in 200 μl volumes with inhibitors for 10 min. […] Supernatants containing metabolic end-products and citrate standard were analysed to evaluate effects on proline metabolism (see below), while the ATP content of cells was determined as follows. […] ATP content was determined as above.

SMILES | Selectivity towards T. brucei over mammalian HeLa cells (T. brucei BSF; from EC50 values of Fig 1) | EC50 (T. brucei PF) [µM] | Inhibition of cellular ATP production [1] [%] | EC50 (T. brucei BSF; Trypanosoma brucei, bloodstream form, footnote b) [µM]
CCCCCC[C@H]1CCC[C@@H](Cn2cc([C@@H]3CCC[C@H](CCCCO)O3)nn2)O1 [Compound 1] | only modest selectivity | 8.4 | 55 ± 6 | –
C#CCNC(=O)CCC[C@H]1CC2(C[C@@H](Cn3cc([C@@H]4CCC[C@H](CCCCOCc5ccccc5)O4)nn3)O1)N=N2 [Compound 3] | – | 16.1 ± 0.6 | – | 13 ± 1
O=C(O)CC(=O)O [malonate] | – | – | 62 ± 15 | –
CCCCCC[C@H]1C(=O)O[C@H](C)[C@H](NC(=O)c2cccc(NC=O)c2O)C(=O)O[C@@H](C)[C@@H]1OC(=O)CC(C)C [antimycin A] | – | – | 71 ± 9 | –
